In the test the target is Ubiquitin-conjugating enzyme E2 E1 (Homo sapiens, UniProt P51965). The test can be described thus: HTRF Assay : The UAE enzymatic reaction totals 50 μL and contains 50 mmol HEPES (pH 7.5), 0.05% BSA, 2.5 mM MgCl2, 0.1 uM ATP, 8 nM GST-Ubc-2, 35 nM flag-ubiquitin, 1 nM recombinant human UAE or mouse UAE. Compounds for this hUAE 1050 assay are tested at 10 point 3-fold dilution. The top concentration for this assay is 1 μM. Each compound is ordered in duplicate on the same plate.
Chain of Ubiquitin-conjugating enzyme E2 E1 (P51965 whole entry): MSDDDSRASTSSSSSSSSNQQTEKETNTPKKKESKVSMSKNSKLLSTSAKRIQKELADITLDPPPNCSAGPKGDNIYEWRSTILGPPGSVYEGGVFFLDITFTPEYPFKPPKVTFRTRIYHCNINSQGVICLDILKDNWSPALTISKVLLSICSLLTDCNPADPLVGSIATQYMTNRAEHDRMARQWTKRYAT

As a reminder, the IC50 is the concentration that gives 50% inhibition. With `NS(=O)(=O)OC[C@H]1C[C@@H](Nc2ccnc3cc(-c4cccc5ccccc45)nn23)[C@H](O)[C@@H]1O` (racemic), the half-maximal inhibitory concentration (IC50) is under 10 nM.

(Values after ChEMBL document CHEMBL5726263, “Pyrazolopyrimidinyl inhibitors of ubiquitin-activating enzyme” (2017).)
